From patent US9845323B2, “2-(1,3,4-oxadiazol-2-yl)-7-oxo-1,6-diazabicyclo[3.2.1 ]octane derivatives and their use as antibacterial agents” (WOCKHARDT LIMITED, priority 2014, dated 2017) come the findings set out here.

Converted amounts (≈) assume the structure as drawn. Read-outs that look alike come from different tables or passages of the source.

For one assay, the system named is K. pneumoniae H521. Description: Agar dilution MIC of Ceftazidime, alone or with fixed 4 μg/ml compound. It counts as cell-based. How it is done:
(§1) Agar dilution MIC was carried out in Muller Hinton Agar (Difco, USA) according to the recommendations of CLSI (M07-A9). In short, the plates were poured with a range of doubling increasing concentration of Ceftazidime and fixed 4 μg/ml compound according to invention containing MHA. The freshly overnight grown cultures were diluted in physiological saline to deliver per spot 10^4 CFU. The plates were inoculated with a multipoint inoculator (Mast, UK) and incubated at 35° C. for 18 hours. […] Table-5 provides the result of combination MIC results.

The next assay deals with Citrobactor spp 58 MP. The assay is described as above. It counts as cell-based. How it is done:
as §1

In a further assay the test system is E. coli NCTC 13353. The description is as above. The class given is cell-based. How it is done:
as §1

Assay [1] has as its system K. pneumoniae ATCC 700606. Described as above. It counts as cell-based. How it is done: as §1
The test system of assay [2] is E. coli M 50. The description is as above. It counts as cell-based. How it is done: as §1
The target of assay [3] is T1, Class D beta-lactamase OXA 23 (A baumannii NCTC 13301) (Acinetobacter baumannii, UniProt Q9L4P2).
T1 construct: preincubated mixture of crude enzyme and the compounds; endogenous in cells; host or cells: A. baumannii NCTC 13301 (crude enzyme preparation)
T1 sequence (Q9L4P2 18-273): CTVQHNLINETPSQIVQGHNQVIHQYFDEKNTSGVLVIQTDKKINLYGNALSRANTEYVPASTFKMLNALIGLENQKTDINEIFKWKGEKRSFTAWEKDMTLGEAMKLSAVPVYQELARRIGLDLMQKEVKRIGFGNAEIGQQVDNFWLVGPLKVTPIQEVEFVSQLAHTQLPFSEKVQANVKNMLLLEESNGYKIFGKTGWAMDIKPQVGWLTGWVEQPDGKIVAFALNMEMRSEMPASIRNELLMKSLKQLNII
Description: Beta-lactamase enzyme inhibition (Nitrocefin, crude enzyme). The class given is biochemical. To be noted: A baumannii NCTC 13301 (OXA 23), Nitrocefin 100 μM. How it is done: (§2) Absorbance was measured at 485 nm by UV-spectrophotometer. The IC50 was calculated by plotting absorbance against concentration through Sigmoidal dose response curve using Graph Pad software.

Assay [4] concerns the target Class A beta-lactamase SHV 18 (K. pneumoniae ATCC 700603) (Klebsiella pneumoniae, UniProt P0AD64). The description is as above. It counts as biochemical. How it is done: as §2
The test system of assay [5] is Class C beta-lactamase CMY/DHA (E. coli M50). Described as above. It counts as biochemical. To be noted: Nitrocefin 100 μM. How it is done:
as §2

The subject of assay [6] is K. pneumoniae H521 (KPC, SHV, TEM). The assay can be described thus: Agar dilution MIC (CLSI), compound alone. It counts as cell-based. How it is done: (§3) The biological activity of representative compounds according to the invention against various bacterial strains was investigated. In a typical study, overnight grown bacterial cultures were diluted appropriately and inoculated on the agar media containing doubling dilutions of the test compounds. Observations for growth or no growth was performed after 16-20 hours of incubation at 35±2° C. in the ambient air. The overall procedure was performed as per Clinical and Laboratory Standards Institute (CLSI) recommendations, (Clinical and Laboratory Standards Institute (CLSI), Performance Standards for Antimicrobial Susceptibility Testing, 20th Informational Supplement, M 07-A9, Volume 32, No. 2, 2012). Molten Mueller Hinton Agar (BD, USA) containing serial dilutions of each antibacterial agent were poured on to the plates and allowed to solidify. Appropriate suspensions from the freshly grown cultures were prepared in normal saline so that about 10^4 CFU/spot of the organism was delivered on to the drug containing agar plates using automated multipoint inoculator (Mast, UK). The plates were incubated in Biochemical oxygen demand (BOD) incubator at 37° C. for 18 hours and then examined for growth.

Assay [7] deals with E. coli NCTC 13353 (CTX-M15, OXA-1). The assay can be described thus: Agar dilution MIC (CLSI), compound alone. The class given is cell-based. How it is done: as §3
For assay [8], the system named is K. Pneomoniae S48 (NDM, SHV, TEM). Description: Agar dilution MIC (CLSI), compound alone. The class given is cell-based, K. pneumoniae. How it is done:
as §3

Assay [9] concerns Multi Drug Resistant (MDR) Gram-negative bacterial strains. Description: Antibacterial activity alone. The class given is cell-based. Conditions: compounds used alone; compared with standards (imipenem, ceftazidime) or avibactam. How it is done:
as §3

Another assay deals with P. aeruginosa ATCC 27853. Description: Agar dilution MIC (CLSI), compound alone. It counts as cell-based. Conditions: Pseudomonas aeruginosa, ATCC27853. How it is done: as §3
The subject of a further assay is E. coli NCTC 13351. Description: Agar dilution MIC (CLSI), compound alone. It counts as cell-based. Conditions: Escherichia coli, NCTC13351. How it is done:
as §3

The subject of another assay is E. coli M 49. Description: Agar dilution MIC (CLSI), compound alone. To be noted: Escherichia coli, M49. It counts as cell-based. How it is done: as §3
Another assay has as its system E. coli NCTC 13352. Description: Agar dilution MIC (CLSI), compound alone. The class given is cell-based. To be noted: Escherichia coli, NCTC13352. How it is done: as §3
For another assay, the system named is K. pneumoniae B 77. The assay can be described thus: Agar dilution MIC (CLSI), compound alone. To be noted: Klebsiella pneumoniae, B77. The class given is cell-based. How it is done: as §3
Another assay concerns K. pneumoniae H 525. The assay can be described thus: Agar dilution MIC (CLSI), compound alone. It counts as cell-based. Conditions: Klebsiella pneumoniae, H525. How it is done: as §3
A further assay relates to P. aeruginosa 2779. Description: Agar dilution MIC (CLSI), compound alone. Conditions: Pseudomonas aeruginosa. It counts as cell-based. How it is done:
as §3

The test system of a further assay is P. aeruginosa R 20. Description: Agar dilution MIC (CLSI), compound alone. The class given is cell-based. To be noted: Pseudomonas aeruginosa, R20. How it is done: as §3
The next assay deals with P. aeruginosa PAO1. The assay can be described thus: Agar dilution MIC (CLSI), compound alone. To be noted: Pseudomonas aeruginosa. The class given is cell-based. How it is done:
as §3

The subject of a further assay is K. pneumoniae S 21. The assay can be described thus: Agar dilution MIC (CLSI), compound alone. It counts as cell-based. Conditions: Klebsiella pneumoniae, S21. How it is done:
as §3

Assay [10] deals with E. coli M 50. The assay can be described thus: Agar dilution MIC (CLSI), compound alone. The class given is cell-based. Conditions: Escherichia coli, M50. How it is done: as §3
The next assay concerns E. coli 7 MP. The assay can be described thus: Agar dilution MIC (CLSI), compound alone. To be noted: Escherichia coli. The class given is cell-based. How it is done: as §3
The subject of the next assay is C. frundaii 58 MP. The assay can be described thus: Agar dilution MIC (CLSI), compound alone. It counts as cell-based. How it is done: as §3
The subject of another assay is E. cloacae M 20. Description: Agar dilution MIC (CLSI), compound alone. It counts as cell-based. Conditions: Enterobacter cloacae, M20. How it is done:
as §3

[11] abbreviates: Ceftazidime + compound fixed at 4 mcg/ml.

Class A beta-lactamase SHV 18 (K. pneumoniae ATCC 700603), sequence (P0AD64 22-286 limits assumed): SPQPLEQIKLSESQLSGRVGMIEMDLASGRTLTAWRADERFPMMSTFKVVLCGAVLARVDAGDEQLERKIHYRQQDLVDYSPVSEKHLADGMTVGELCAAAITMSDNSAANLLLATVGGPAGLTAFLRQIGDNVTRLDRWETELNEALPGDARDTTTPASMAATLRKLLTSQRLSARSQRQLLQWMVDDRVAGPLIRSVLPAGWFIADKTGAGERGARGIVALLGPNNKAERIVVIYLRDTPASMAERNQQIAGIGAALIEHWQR

On to `CC(C)(O/N=C(\C(=O)N[C@@H]1C(=O)N2C(C(=O)[O-])=C(C[n+]3ccccc3)CS[C@H]12)c1csc(N)n1)C(=O)O` [Ceftazidime, ceftazidime, reference compound], for which the MIC of Ceftazidime alone in the assay on K. pneumoniae H521 (Ceftazidime alone, Table 5) is more than 32 mg/L; in the assay with Citrobactor spp 58 MP (Ceftazidime alone, Table 5), 16 mg/L; in the assay with E. coli NCTC 13353 (Ceftazidime alone, Table 5), 32 mg/L; in [1] (Ceftazidime alone, Table 5), 32 mg/L; in the assay with E. coli M 50 [2] (Ceftazidime alone, Table 5) it was more than 32 mg/L.

`O=C1N2C[C@@H](CC[C@H]2c2nnc(CCc3ccccc3)o2)N1OS(=O)(=O)O` [Example 6, (2S,5R)-sulfuric acid mono-[2-(5-phenyl-ethyl-[1,3,4]-oxadiazol-2-yl)-7-oxo-1,6-diaza-bicyclo[3.2.1]oct-6-yl] ester]: the IC50 in assay [3] is 0.22 µM; in assay [4] (K. pneumoniae ATCC 700603 (SHV 18), Nitrocefin 100 μM, read-out: Beta-lactamase enzyme inhibition IC50), 0.032 µM; in [5] it was 0.004 µM. Besides, the MIC of Ceftazidime in combination with the compound was more than 32 mg/L in the assay on K. pneumoniae H521 (setting [11]); 4 mg/L with Citrobactor spp 58 MP (setting [11]); 0.5 mg/L with E. coli NCTC 13353 (setting [11]); 8 mg/L in assay [1] (setting [11]); 8 mg/L with E. coli M 50 [2] (setting [11]). Further, the MIC in assay [6] (K. pneumoniae H521 (KPC, SHV, TEM), compound alone, Table 2) was more than 32 mg/L; in assay [7] (E. coli NCTC 13353 (CTX-M15, OXA-1), compound alone, Table 2), more than 32 mg/L; in assay [8] (K. Pneomoniae S48 (NDM, SHV, TEM), compound alone, Table 2), more than 32 mg/L.

For the compound `O=C1N2C[C@@H](CC[C@H]2c2nnc(Cc3ccccc3)o2)N1OS(=O)(=O)O` [Example 5, (2S,5R)-sulfuric acid mono-[2-(5-benzyl-[1,3,4]-oxadiazol-2-yl)-7-oxo-1,6-diaza-bicyclo[3.2.1]oct-6-yl] ester], the IC50 came out at 0.28 µM in assay [3]; 0.033 µM in assay [4] (read-out: Beta-lactamase enzyme inhibition IC50, K. pneumoniae ATCC 700603 (SHV 18), Nitrocefin 100 μM); 0.006 µM in [5]. For the same compound, in assay [9], the “Antibacterial activity (MIC values) in words” value was “exhibited antibacterial activity in comparison to avibactam”. In addition, the MIC is more than 32 mg/L against P. aeruginosa ATCC 27853; 16 mg/L (≈ 42.1 µM) with E. coli NCTC 13351; more than 32 mg/L in the assay with E. coli M 49; 16 mg/L (≈ 42.1 µM) with E. coli NCTC 13352; more than 32 mg/L in the assay with K. pneumoniae B 77; 32 mg/L (≈ 84.1 µM) in [6] (K. pneumoniae H 521, Table 3). Further, the MIC was 32 mg/L (≈ 84.1 µM) in [6] (Klebsiella pneumoniae); 16 mg/L (≈ 42.1 µM) in the assay on K. pneumoniae H 525; more than 32 mg/L against P. aeruginosa 2779; more than 32 mg/L against P. aeruginosa R 20; 8 mg/L (≈ 21 µM) in assay [7] (E. coli NCTC 13353, Table 3); 8 mg/L (≈ 21 µM) in assay [7] (Escherichia coli, NCTC13353). Further, the minimum inhibitory concentration (MIC) against P. aeruginosa PAO1 is more than 32 mg/L; in the assay on K. pneumoniae S 21, more than 32 mg/L; against E. coli M 50 [10], 16 mg/L (≈ 42.1 µM); in the assay on E. coli 7 MP, 32 mg/L (≈ 84.1 µM); in the assay with C. frundaii 58 MP, more than 32 mg/L; against E. cloacae M 20, more than 32 mg/L. This compound came in with an MIC in assay [8] (Klebsiella pneumoniae) of 8 mg/L (≈ 21 µM).
